Assay results reported in patent US5474988A, “5-phenylpyrrolo-1,4-benzoxazine and 5-phenylpyrrolo-1,4-benzothiazine compounds, process and intermediates for their production and pharmaceutical compositions containing them” (Kali-Chemie Pharma GmbH, priority 1993, dated 1995).

Key:
[1] = tested on: P.A.F.-induced aggregation of blood platelets; experiment: anti-P.A.F. action in vitro (P.A.F.-induced platelet aggregation); format: cell-based; details: Oryctolagus cuniculus, 10^-5 mole/liter, read-out: Anti-P.A.F. activity in vitro, % inhibition of the P.A.F.-induced aggregation of blood platelets from rabbit blood
Outline: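 Washed rabbit platelets (4×10^9/ml stock suspension, aspirin-lysine treated) in modified Tyrode buffer pH 7.4 with 1.3 mM CaCl2 and gelatine; test substance at 10^-5 mol/l final, 90 s preincubation before P.A.F. Aggregation followed 4-5 min by aggregometer; % inhibition of P.A.F.-induced aggregation increase calculated.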

5-lipoxygenase = experiment: inhibition of 5-lipoxygenase activity in polymorphonuclear rat leucocytes (LTB4 formation); format: cell-based; details: 10^-5 mol/l; 22° C.
Outline: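 Thioglycolate-elicited peritoneal PMNs from male Sprague-Dawley rats (0.5×10^6 cells) preincubated 15 min at 22 °C with 10 μM compound in HEPES-buffered HBSS, then stimulated with 5 μM calcimycin for 10 min. LTB4 quantified by reverse-phase HPLC at 270 nm; % inhibition versus solvent control.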

Structure (SMILES)	inhibition at 10 µM [1]	In vitro inhibitory activity on LTB4 formation in rat PMNs stimulated by calcium ionophore A23187 (5-lipoxygenase)
Cc1ccnc(N2CCN(CCC3Cn4c(-c5cc(C)c(O)c(C)c5)c(C)c5cccc(c54)O3)CC2)c1 (centres unmarked) [Example 20]	92%	75%
Cc1cc(-c2c(C)c3c(O)ccc4c3n2CC(CCC(=O)N2CCN(c3ccccn3)CC2)O4)cc(C)c1O (centres unmarked) [Example 71]	84%	100%
Cc1ccnc(N2CCN(C(=O)CCC3Cn4c(-c5ccc(O)cc5)c(C)c5cccc(c54)O3)CC2)c1 (centres unmarked) [Example 15]	100%	94%
Cc1ccnc(N2CCN(C(=O)CCC3Cn4c(-c5cc(C)c(O)c(C)c5)c(C)c5cccc(c54)O3)CC2)c1 (centres unmarked) [Example 25]	91%	–
Cc1ccnc(N2CCN(C(=O)CCCC3Cn4c(-c5cc(C)c(O)c(C)c5)c(C)c5cccc(c54)O3)CC2)c1 (centres unmarked) [Example 9, 2,3-Dihydro-5-(3,5-dimethyl-4-hydroxyphenyl)-6-methyl-2-[4-(4-(4-methylpyridin-2-yl)piperazin-1-yl)-4-oxobutyl]-pyrrolo[1,2,3-de]-1,4-benzoxazine]	67%	86%
Cc1ccnc(N2CCN(CCC3Cn4c(-c5cc(C)c(O)c(C)c5)c(C)c5cc(O)cc(c54)O3)CC2)c1 (centres unmarked) [Example 44]	99%	100%
COc1cc(-c2c(C)c3cccc4c3n2CC(CCC(=O)N2CCN(c3ccc(C)cn3)CC2)O4)ccc1O (centres unmarked) [Example 39]	–	98%
Cc1ccnc(N2CCN(CCC3Cn4c(-c5cc(C)c(O)c(C)c5)c(C)c5c(F)ccc(c54)O3)CC2)c1 (centres unmarked) [Example 28]	83%	48%
Cc1cc(-c2c(C)c3cccc4c3n2CC(CCCCN2CCN(c3ccccn3)CC2)O4)cc(C)c1O (centres unmarked) [Example 65]	52%	64%
Cc1ccnc(N2CCN(CCC3Cn4c(-c5cc(C)c(O)c(C)c5)c(C)c5cc(F)cc(c54)O3)CC2)c1 (centres unmarked) [Example 42]	40%	–
Cc1cc(-c2c(C)c3cccc4c3n2CC(CCC(=O)N2CCN(c3ccccn3)CC2)O4)cc(C)c1O (centres unmarked) [Example 26]	82%	67%
Cc1ccnc(N2CCN(CCC3Cn4c(-c5ccc(O)c(O)c5)c(C)c5cccc(c54)O3)CC2)c1 (centres unmarked) [Example 13]	94%	98%
Cc1cc(-c2c(C)c3c(OCc4ccccc4)ccc4c3n2CC(CCC(=O)N2CCN(c3ccccn3)CC2)O4)cc(C)c1O (centres unmarked) [Example 75]	–	51%
Cc1ccnc(N2CCN(C(=O)CCC3Cn4c(-c5ccc(O)cc5)c(C)c5c(O)ccc(c54)O3)CC2)c1 (centres unmarked) [Example 69]	97%	100%
Cc1cc(-c2c(C)c3c(F)ccc4c3n2CC(CCN2CCN(c3ccccn3)CC2)O4)cc(C)c1O (centres unmarked) [Example 27]	–	90%
Cc1ccc(N2CCN(C(=O)CCC3Cn4c(-c5ccc(O)cc5)c(C)c5cccc(c54)O3)CC2)nc1 (centres unmarked) [Example 34]	77%	95%
Cc1cc(-c2c(C)c3cccc4c3n2CC(CCCC(=O)N2CCN(c3ccccn3)CC2)O4)cc(C)c1O (centres unmarked) [Example 23]	66%	92%
Cc1cccnc1N1CCN(CCCC2Cn3c(-c4cc(C)c(O)c(C)c4)c(C)c4c(O)ccc(c43)O2)CC1 (centres unmarked) [Example 74]	–	100%
COc1cc(-c2c(C)c3cccc4c3n2CC(CCN2CCN(c3cc(C)ccn3)CC2)O4)ccc1O (centres unmarked) [Example 12]	93%	100%
COc1cc2c3c(c1)c(C)c(-c1cc(C)c(O)c(C)c1)n3CC(CCN1CCN(c3cc(C)ccn3)CC1)O2 (centres unmarked) [Example 43]	95%	66%
COc1cc(-c2c(C)c3c(O)ccc4c3n2CC(CCC(=O)N2CCN(c3ccccn3)CC2)O4)cc(C)c1O (centres unmarked) [Example 72]	79%	100%
Cc1ccnc(N2CCN(CCCC3Cn4c(-c5cc(C)c(O)c(C)c5)c(C)c5c(O)ccc(c54)O3)CC2)c1 (centres unmarked) [Example 73]	–	100%
Cc1ccnc(N2CCN(C(=O)CCC3Cn4c(-c5cc(C)c(O)c(C)c5)c(C)c5c(O)ccc(c54)O3)CC2)c1 (centres unmarked) [Example 67]	97%	100%
COc1ccc2c3c1c(C)c(-c1ccc(O)cc1)n3CC(CCN1CCN(c3cc(C)ccn3)CC1)O2 (centres unmarked) [Example 3, 2,3-Dihydro-5-(4-hydroxyphenyl)-7-methoxy-6-methyl-2-[2-(4-(4-methylpyridin-2-yl)piperazin-1-yl)ethyl]pyrrolo[1,2,3-de]-1,4-benzoxazine]	92%	96%
Cc1ccnc(N2CCN(CCCC3Cn4c(-c5cc(C)c(O)c(C)c5)c(C)c5c(F)ccc(c54)O3)CC2)c1 (centres unmarked) [Example 29]	50%	–
Cc1ccnc(N2CCN(CCC3Cn4c(-c5ccc(O)cc5)c(C)c5c(O)ccc(c54)O3)CC2)c1 (centres unmarked) [Example 4, 2,3-Dihydro-7-hydroxy-5-(4-hydroxyphenyl)-6-methyl-2-[2-(4-(4-methylpyridin-2-yl)piperazin-1-yl)ethyl]pyrrolo[1,2,3-de]-1,4-benzoxazine]	99%	100%
